Earlier results on one substance are cited in patent publication US20070025918A1, “Magnetic resonance imaging (MRI) agents: water soluble carbon-13 enriched fullerene and carbon nanotubes for use with dynamic nuclear polarization” (General Electric Company, priority 2005, published 2007).

For data set [1] the following is noted: THF and acetone.

Consider C60F60, for which the solubility in water entry is recorded as “virtually insoluble”. Besides, the “solubility in organic solvents” value in data set [1] is listed as “soluble”.
